For experiment [1], the system named is p-Smad2/3 and Smad7 in MRC-5 cells. In words: p-Smad2/3 and Smad7 expression in fibroblasts. The experiment is classed as cell-based, human. The note with it: 40 μM stearic acid pre-treatment 16 h, TGF-β1 1 h. On the procedure: (§1) The present inventors pre-treated a human pulmonary fibroblast cell line MRC-5 with 40 μM stearic acid for 16 hours, treated the MRC-5 cells with TGF-β1 for 1 hour, and then examined the expression levels of p-Smad2/3 and Smad7 in order to elucidate the anti-fibrotic mechanism of stearic acid in human pulmonary fibroblasts (FIGS. 12A and 12B). Further, to investigate the effect of stearic acid on the production of reactive oxygen species (ROS), MRC-5 cells were pre-treated with 40 μM stearic acid for 16 hours, and cells treated with TGF-β1 for 1 hour were stained with DCF-DA and analyzed by FACS (FIG. 12C). Furthermore, MRC-5 cells were pre-treated with 5 mM N-acetylcysteine (NAC), which is an antioxidant, for 1 hour and treated with TGF-β1 for 1 hour, and then the expression of p-Smad2/3 was examined (FIG. 12D).

The subject of experiment [2] is reactive oxygen species in MRC-5 cells. In words: ROS measurement (DCF-DA, FACS). The experiment is classed as cell-based, human. The note with it: 40 μM stearic acid pre-treatment 16 h, TGF-β1 1 h. On the procedure: as §1

SMILES strings stand for the structures.

On to `CCCCCCCCCCCCCCCCCC(=O)O` [stearic acid], for which, in experiment [1], the “expression of Smad 7 reduced by TGF-β1” value was “restored” and the “expression of p-Smad2/3 induced by TGF-β1” value is “inhibited”. Moreover, in experiment [2], the “level of reactive oxygen species induced by TGF-β1” value is listed as “remarkably reduced”.

These data come from patent publication US20210205253A1, “Use Of Stearic Acid For Preventing Or Treating Pulmonary Fibrosis” (THE ASAN FOUNDATION, priority 2018, published 2021).
